The text below walks through data of ChEMBL document CHEMBL1158178, “Study on the binding interaction between carnitine optical isomer and bovine serum albumin” (Eur J Med Chem, 2008).

Data set [1] has as its target T1, Albumin (Bos taurus, UniProt P02769). Kind of data set: Binding affinity to bovine serum albumin by fluorescence spectroscopy. It counts as ADME. The conditions noted are these: cattle, isolated protein.
The target in data set [2] is T1, Albumin. Kind of data set: Binding affinity to bovine serum albumin by fluorescence spectroscopy in presence of Fe3+. It counts as ADME. To be noted: cattle, isolated protein.

T1 sequence (P02769 whole entry): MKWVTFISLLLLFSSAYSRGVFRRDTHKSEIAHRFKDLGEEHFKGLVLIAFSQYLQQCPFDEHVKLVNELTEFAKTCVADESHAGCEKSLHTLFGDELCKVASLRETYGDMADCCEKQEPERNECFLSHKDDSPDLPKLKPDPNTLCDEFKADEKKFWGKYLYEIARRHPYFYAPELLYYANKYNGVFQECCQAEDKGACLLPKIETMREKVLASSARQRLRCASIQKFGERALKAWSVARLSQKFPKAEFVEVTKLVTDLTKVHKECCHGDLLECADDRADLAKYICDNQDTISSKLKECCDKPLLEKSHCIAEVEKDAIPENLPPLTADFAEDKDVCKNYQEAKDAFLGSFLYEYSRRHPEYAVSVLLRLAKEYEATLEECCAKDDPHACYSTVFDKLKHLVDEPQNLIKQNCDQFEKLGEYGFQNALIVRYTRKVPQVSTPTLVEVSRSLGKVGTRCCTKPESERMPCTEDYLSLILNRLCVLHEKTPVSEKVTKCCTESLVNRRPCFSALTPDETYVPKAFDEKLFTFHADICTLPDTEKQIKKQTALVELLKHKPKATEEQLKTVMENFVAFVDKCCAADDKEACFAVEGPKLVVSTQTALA

On to `C[N+](C)(C)C[C@@H](O)CC(=O)[O-]` [D-CARNITINE], for which the K in data set [1] is 2.15 ×10⁴ L/mol; in data set [2] it was 3.18 ×10⁴ L/mol.
For `C[N+](C)(C)C[C@H](O)CC(=O)[O-]` [LEVOCARNITINE] the same measures were 2.27 ×10⁴ L/mol and 2.97 ×10⁴ L/mol.
